Experimental data from US9623108B2, “Formulation for oral administration with beneficial effects on the cardiovascular system” (ROTTAPHARM S.p.A., priority 2006, dated 2017).

Legend:
[1] = NOAEL, doses repeated daily in an animal; format: in vivo; conditions: equivalent of the animal NOAEL in humans
[2] = biological target: T1, HMG-CoA-r (Homo sapiens, UniProt P04035); conditions: competition with HMG-CoA at HMG-CoA-r; cited from earlier work
T1 sequence (P04035 1-888): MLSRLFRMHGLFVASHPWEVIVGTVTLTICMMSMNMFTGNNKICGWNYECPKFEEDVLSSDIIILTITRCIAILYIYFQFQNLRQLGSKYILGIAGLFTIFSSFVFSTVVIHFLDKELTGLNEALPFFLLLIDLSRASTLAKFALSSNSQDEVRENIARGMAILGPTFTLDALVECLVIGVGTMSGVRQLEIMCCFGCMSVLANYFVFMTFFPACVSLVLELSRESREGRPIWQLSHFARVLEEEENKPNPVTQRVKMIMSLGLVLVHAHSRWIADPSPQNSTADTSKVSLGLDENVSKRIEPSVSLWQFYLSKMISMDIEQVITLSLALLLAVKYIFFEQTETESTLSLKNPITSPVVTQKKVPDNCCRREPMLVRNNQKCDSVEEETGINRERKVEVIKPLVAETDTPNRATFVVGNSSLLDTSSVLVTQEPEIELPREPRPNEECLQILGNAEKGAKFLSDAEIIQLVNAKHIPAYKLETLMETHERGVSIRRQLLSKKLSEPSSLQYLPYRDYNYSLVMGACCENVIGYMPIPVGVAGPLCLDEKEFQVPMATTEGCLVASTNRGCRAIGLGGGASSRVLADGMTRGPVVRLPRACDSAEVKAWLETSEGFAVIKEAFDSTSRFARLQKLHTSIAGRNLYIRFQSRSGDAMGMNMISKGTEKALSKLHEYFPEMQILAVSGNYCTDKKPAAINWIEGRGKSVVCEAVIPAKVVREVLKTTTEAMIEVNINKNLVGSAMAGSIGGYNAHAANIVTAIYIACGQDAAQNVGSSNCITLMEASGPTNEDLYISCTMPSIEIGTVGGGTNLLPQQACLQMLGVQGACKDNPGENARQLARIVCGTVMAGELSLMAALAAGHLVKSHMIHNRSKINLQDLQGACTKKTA

[3] = system: rabbits rendered hypercholesterolaemic and hypertriglyceridaemic; assay: Rabbits rendered hypercholesterolaemic and hypertriglyceridaemic with atherogenic feed, 3 months treatment, blood lipid analyses; format: in vivo, New Zealand White rabbits
Experimental: The action of the active principles, according to the composition of COMB, was tested and evaluated experimentally on rabbits rendered hypercholesterolaemic and hypertriglyceridaemic with a diet with added cholesterol, powdered egg yolk and lard. Note: all the daily doses used in the treatment groups, described in the experimental section, are about 4 times higher than those stated in the examples of formulation described in a later section. An exception is the group treated with berberine 100 mg/kg, for which the dose of active principle corresponds to about 13 times that contained in the examples of formulations intended for oral administration in humans. […] The difference in posology between animals and humans is perfectly normal in pharmacology, because it is well known that the pathologies induced experimentally in animals are always dramatically and unnaturally more severe than those that occur spontaneously in humans. New Zealand White rabbits of 6-8 weeks and with body weight of 1.8-2.0 kg. The following feeds, in pellets, were provided at a ration of 150 g of feed per day. Water was available ad libitum. ATER: Atherogenic feed, i.e. standard feed for guinea pigs and rabbits according to Sherman, in pellets (Laboratorio Dottori […].) with addition of 10% powdered egg yolk, 10% lard and 1% cholesterol according to Kong et al. [2004]. The substances under investigation were administered by stomach tube, once a day, suspended in 2 ml/kg of carboxymethylcellulose 0.2% (CMC). All the animals were acclimatized in the living quarters at 25±2° C. and relative humidity 55-65%. After 1 week, blood samples were taken in order to obtain the baseline data. The animals were then randomized to the following treatment groups of 10 rabbits each. AT: Controls with feed ATER and with daily administration of 2 ml/kg of CMC by stomach tube. Ber30: Feed AT, with daily administration of berberine 30 mg/kg in 2 ml/kg of CMC, by stomach tube. Ber100: Feed AT, with daily administration of berberine 100 mg/kg in 2 ml/kg of CMC, by stomach tube. Ass (reference association (combination) for lowering blood lipid level): Feed AT, with daily administration of Ass in 2 ml/kg of CMC, by stomach tube. COMB: Feed AT, with daily administration of Ass with addition of 30 mg/kg of berberine in 2 ml/kg of CMC, by stomach tube. The treatments were continued for 3 months. […] These analyses were carried out with suitably validated, conventional laboratory methods. A descriptive statistical analysis was performed using conventional methods of calculation.

[4] = system: hypercholesterolaemic patients; conditions: berberine 500 mg b.i.d.; cited from earlier work
[5] = system: patients who had hypercholesterolaemia and hypertriglyceridaemia; conditions: 500 mg berberine in a single dose once a day; cited from earlier work
[6] = berberine 30 mg/kg/d by stomach tube, not statistically significant
[7] = berberine 100 mg/kg/d by stomach tube, p<0.001

Structure (SMILES): CC1=C(/C=C/C(C)=C/C=C/C(C)=C/C=C/C=C(C)/C=C/C=C(C)/C=C/C2=C(C)C(=O)[C@@H](O)CC2(C)C)C(C)(C)C[C@H](O)C1=O [Ast, 3,3′-dihydroxy-β,β′-carotene-4,4′-dione]
- NOAEL equivalent in humans [1]: more than 80 g

Structure (SMILES): CC[C@H](C)C(=O)O[C@H]1C[C@@H](C)C=C2C=C[C@H](C)[C@H](CC[C@@H]3C[C@@H](O)CC(=O)O3)[C@H]21 [Monacoline K]
- activity for the enzyme relative to the natural substrate HMG-CoA [2]: 2000 times

Structure (SMILES): COc1ccc2cc3[n+](cc2c1OC)CCc1cc2c(cc1-3)OCO2 [berberine, 5,6-dihydro-9,10-dimethoxybenzo[g]-1,3-benzodioxolo[5,6-a]quinolizinium]
- increase in HDL ([3]; berberine 30 mg/kg/d): 0.48 mmol/L
- reduction of the increase in LDL caused by AT [3, 6]: 13%
- reduction of the increase in total cholesterol (CT) caused by AT [3, 6]: 15%
- reduction of the increase in blood triglycerides (TG) caused by AT ([3]; berberine 30 mg/kg/d by stomach tube, p<0.01): 43%
- increase in HDL ([3]; berberine 100 mg/kg/d): 0.53 mmol/L
- reduction of the increase in LDL caused by AT [3, 7]: 89%
- reduction of the increase in blood triglycerides (TG) caused by AT [3, 7]: 66%
- reduction of the increase in total cholesterol (CT) caused by AT [3, 7]: 87%
- hepatic transaminases [4]: decrease in hepatic transaminases
- hepatic transaminases [5]: improved
- tolerability of the treatment [5]: well tolerated
